Measured values reported in US12297182B2, “Compositions comprising an urolithin compound” (Amazentis SA, priority 2015, dated 2025).

Key:
[1] = design: species or system male Sprague-Dawley rats; settings: rat, in vivo, po
Description: The solutions for gavage were prepared as follows: 35 mg of urolithin A powder was diluted in 7 ml of 15% DMSO, 0.5% methyl cellulose/0.25% Tween 80 in water, resulting in a 5 mg/ml fine suspension. The DMSO was obtained from BDH, methyl cellulose was obtained from Sigma, and Tween 80 was obtained from Sigma-Aldrich.
Blood was collected from the rats by jugular vein cannulation at different time points, and urolithin A was quantified in the plasma to determine its pharmacokinetic profile following oral gavage of Sample #1, Sample #2, and Sample #3. The study was repeated on three rats for each sample. […]

[2] = test system: 22 month old C57BL/6J old mice; assay: Treadmill endurance test in old mice fed a high protein diet with or without Urolithin A; assay type: in vivo; settings: Urolithin A 50 mg/kg/day in high protein diet, 6 weeks, normalized over basal values, compared to mice receiving only a protein diet; no exercise regimen
Excerpt: To mimic age related muscle loss in humans, an experimental animal model was setup in old mice. The control diet designed to be used in the experimental study was a high protein diet that would be analogous to a clinically recommended high protein diet in elderly humans at risk of muscle loss. The diet was formulated to improve the performance of old animals that consume them. The high protein diet has a better balance of essential nutrients (amino acids, vitamins and minerals) and is supplemented with 200 gr casein per kg of diet, instead of 140 gr of casein in the regular maintenance diet (Reeves PG, J. Nutr. 1997, 127(5) 838S-841S). Casein proteins are nutritionally complete, highly digestible proteins with high amino scores that contain all amino acids in amounts sufficient to support maintenance of all body proteins. Urolithin A was admixed to the high protein diet at a level of 0.57 g per kg of diet. Both the diets were isocaloric. 22 month old C57BL/6J old mice that would be equivalent to a 65 yr to 75 yr old elderly human were treated with either the high protein diet alone or a high protein diet containing Urolithin A. Both the diets contained in addition to the casein protein, essential nutrient for optimal muscle function such as L-cysteine and vitamins and mineral mix. The level of Urolithin A in the diet results in a dose of 50 mg/kg/day delivered to mice. […]

myotubes = settings: in vitro; cited from earlier work

O=c1oc2cc(O)ccc2c2ccc(O)cc12 [Sample #2, Urolithin A]
fold increase in the Cmax ([1]; male, Sprague-Dawley, 25 mg/kg): 2.16 fold
relative increase in the AUC ([1]; male, Sprague-Dawley, 25 mg/kg): 28%
relative increase in the Cmax ([1]; male, Sprague-Dawley, 25 mg/kg): 116%

O=c1oc2cc(O)ccc2c2ccc(O)cc12 [Sample #3, Urolithin A]
relative increase in the AUC ([1]; male, Sprague-Dawley, 25 mg/kg): 26%

O=c1oc2cc(O)ccc2c2ccc(O)cc12 [Urolithin A]
bioavailability (in words) [1]: increase in bioavailability
increase in running distance [2]: 42%
increase in running time [2]: 28%

O=c1oc2cc(O)ccc2c2ccccc12 [Urolithin B]
effect on mean diameter of myotubes (myotubes): increased
